Results published in patent US5861296A, “Purified thermostable inorganic pyprophosphatase obtainable from thermococcus litoralis” (New England Biolabs, Inc., priority 1997, dated 1999).

B1: Thermococcus litoralis inorganic pyrophosphatase subunit (enzyme)
chain: MNPFHDLEPGPEVPEVVYALIEIPKGSRNKYELDKKTGLIKLDRVLYSPFHYPVDYGIIPQTWYDDDDPFDIMVIMREPTYPGVLIEARPIGLFKMIDSGDKDYKVLAVPVEDPYFNDWKDISDVPKAFLDEIAHFFQRYKELQGKEIIVEGWENAEKAKQEILRAIELYKEKFKK

Key:
[1] = target: Thermococcus litoralis inorganic pyrophosphatase (PPase), wild type, SEQ ID NO: 10 (Thermococcus litoralis, UniProt P77992); conditions: read-out: apparent Km for PPi (inorganic pyrophosphate); initial velocities at low substrate concentrations, Mg2+/PPi ratio of one; Lineweaver-Burke plot
Experimental: The PPase is incubated at 75° C. for 10 minutes in a 100 μl reaction containing 30 mM Tris pH 9.0, 1.5 mM MgCl2 and 1.5 mM sodium pyrophosphate. The enzyme is then cooled quickly to room temperature and complexed with 0.9 ml of Taussky-Schorr reagent (5.0 g ferrous sulfate, 10 ml 10% ammonium molybdate in 10N sulfuric acid, in a final solution volume of 100 ml.) After 10 minutes, an absorbance reading is taken at 660 nm. The absorbance reading was compared to a standard curve using Sigma's (St. Louis, Mo.) phosphorous standard (#661-9). One standard unit will liberate 1.0 μmole of inorganic orthophosphate per minute under the above conditions.

[2] = target: the molecule itself; assay: gel filtration on Superose 12 HR 10/30 (125 kDa) against the subunit mass by SDS-PAGE and DNA sequence
Experimental: The molecular mass of the *T. litoralis* inorganic pyrophosphatase was estimated by gel filtration in a Superose 12 HR 10/30 (Pharmacia; Piscataway, N.J.) (10×300 mm). The column was equilibrated with 50 mM Tris-HCl pH 7.5 containing 100 mM NaCl and run at a flow rate of 0.5 ml/min. The Superose 12 HR 10/30 had been previously calibrated with different standard proteins: Catalase (232 kDa), Aldolase (158 kDa), Bovine Serum Albumin (67 KDa), Ovalbumin (43 kDa), Chymotrypsinogen (25 kDa), and Ribonuclease A (13.7 kDa) (all from Pharmacia; Piscataway, N.J.). From the plot of log (molecular mass) versus the distribution coefficient (Kav), a value of 125 kDa was calculated for the molecular mass of *T. litoralis* inorganic pyrophosphatase. Since the apparent molecular mass of the monomer was determined to be 20 to 21 kDa on an SDS-PAGE and 19,666 Da by the DNA sequence, the enzyme is probably homohexameric. The homohexameric structure of the *Thermococcus litoralis* inorganic pyrophosphatase agrees with other known cytoplasmic PPases from eubacterial and archaeal sources which tend to be tetrameric or hexameric complexes with single subunits of 19 to 23 kDa.

| Molecule | Km [1] | binding result [2] |
| --- | --- | --- |
| O=P(O)(O)OP(=O)(O)O [PPi, inorganic pyrophosphate] | 1000 µM | – |
| B1 | – | binds |
